In PubChem BioAssay (NCI):
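96-well plates; 48 h exposure; 5 concentrations. Endpoints by linear interpolation between flanking doses. Not reached: highest tested concentration assigned. TGI: concentration producing complete growth inhibition.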

Experiments:
Assay in all cases: growth of human tumour cells (NCI), 48 h
OVCAR-4 ovarian = system: OVCAR-4 ovarian
HCC-2998 colon = system: HCC-2998 colon
SK-OV-3 ovarian = system: SK-OV-3 ovarian
ACHN renal = system: ACHN renal
BT-549 breast = system: BT-549 breast
OVCAR-3 ovarian = system: OVCAR-3 ovarian
NCI-H522 lung = system: NCI-H522 lung
CCRF-CEM leukemia = system: CCRF-CEM leukemia
OVCAR-5 ovarian = system: OVCAR-5 ovarian
NCI/ADR-RES ovarian = system: NCI/ADR-RES ovarian
TK-10 renal = system: TK-10 renal
MDA-MB-435 = system: MDA-MB-435
MOLT-4 leukemia = system: MOLT-4 leukemia
SK-MEL-28 melanoma = system: SK-MEL-28 melanoma
M14 melanoma = system: M14 melanoma
SF-295 CNS = system: SF-295 CNS
UACC-257 melanoma = system: UACC-257 melanoma

SMILES	TGI (OVCAR-4 ovarian) [µM]	TGI (HCC-2998 colon) [µM]	TGI (SK-OV-3 ovarian) [µM]	TGI (ACHN renal) [µM]	TGI (BT-549 breast) [µM]	TGI (OVCAR-3 ovarian) [µM]	TGI (NCI-H522 lung) [µM]	TGI (CCRF-CEM leukemia) [µM]	TGI (OVCAR-5 ovarian) [µM]	TGI (NCI/ADR-RES ovarian) [µM]	TGI (TK-10 renal) [µM]	TGI (MDA-MB-435) [µM]	TGI (MOLT-4 leukemia) [µM]	TGI (SK-MEL-28 melanoma) [µM]	TGI (M14 melanoma) [µM]	TGI (SF-295 CNS) [µM]	TGI (UACC-257 melanoma) [µM]
CCC(=O)C(C(C)/C=C/CCSc1ccccc1)C(O)CCCCCC(=O)OC (stereo not given)	> 100	> 100	> 100	> 100	> 100	> 100	> 100	> 100	> 100	> 100	> 100	> 100	81	> 100	> 100	> 100	> 100
CCOC(=O)/C(C#N)=C/c1ccc2c(c1)CC1(C2)Cc2cc(CC)c(C(C)O)cc2C1 (stereo not given)	49	> 80.9	98.2	> 85.1	23.4	22.4	> 100	27.2	> 93.1	55.9	84.2	4.83	> 58.6	38.9	16.8	44.3	45.6
COc1ccc(CCNCCCC2c3ccccc3-c3ccccc32)cc1OC	30.5	3.88	32.9	29.6	35.6	31.2	30.1	49	33.4	33.2	27.7	28.3	41.8	23.1	11.8	29.2	28.1
FC1=C2CCCCCC2SC1(F)F (stereo not given)	> 100	> 100	> 100	79.3	> 100	> 100	29.2	18.7	> 100	> 100	> 100	70.7	44.1	> 100	> 100	> 100	> 100
CCCC[C@H]1CCN2C[C@@H](O)[C@@H](O)[C@H]2[C@@H]1O	> 100	> 100	> 100	> 100	> 100	> 100	> 100	> 100	> 100	> 100	> 100	> 100	> 100	> 100	> 100	> 100	> 100
N#Cc1nc(COCCOCc2ccc(F)cc2)oc1N	> 100	> 100	> 100	> 100	> 100	> 100	> 100	> 100	> 100	> 100	> 100	> 100	> 100	> 100	> 100	> 100	> 100
COc1ccc(CCNC(=O)[C@H]2CCCC[C@@H]2CCO)cc1OC	> 100	> 100	> 100	> 100	> 100	> 100	> 100	> 100	> 100	> 100	> 100	> 100	> 100	> 100	> 100	> 100	> 100
COc1cc2c(cc1OC)C(=O)N(NC1=NCCN1)C2=O	> 100	> 100	> 100	> 100	> 100	> 100	> 100	> 100	> 100	> 100	> 100	> 100	> 100	> 100	> 100	> 100	> 100
CC(=O)O[C@@H](C1C[C@@H](C)[C@H]2[C@@](O)(O1)[C@H](O)[C@@]1(C)C3=CC[C@H]4C(C)(C)[C@@H](OC5OCC(O)C(O)C5O)CC[C@@]45C[C@@]35CC[C@]21C)C(C)(C)O (stereo not given in full)	> 100	27.7	63.9	47.2	80.8	41.9	36.9	24.4	56.6	> 100	69.5	53.3	44.8	57	> 100	48.1	38.4
Cc1cc2c(cc1Cl)SC(NNc1ccc([N+](=O)[O-])cc1)=NS2(=O)=O	> 10	> 10	> 10	> 10	> 10	> 10	> 10	> 10	> 10	> 10	> 10	> 10	> 10	> 10	> 10	> 10	> 10
